Here are results for 22 compounds from ChEMBL document CHEMBL1145498, “A systematic interaction map of validated kinase inhibitors with Ser/Thr kinases” (Proc Natl Acad Sci U S A, 2007).

Experiment [1] deals with Serine/threonine-protein kinase PAK 5 (Homo sapiens) (UniProt Q9P286).
Experiment [2] deals with Calcium/calmodulin-dependent protein kinase type 1G (Homo sapiens) (UniProt Q96NX5).
The target of experiment [3] is T1, Lymphokine-activated killer T-cell-originated protein kinase (Homo sapiens) (UniProt Q96KB5).
T1 sequence (whole entry): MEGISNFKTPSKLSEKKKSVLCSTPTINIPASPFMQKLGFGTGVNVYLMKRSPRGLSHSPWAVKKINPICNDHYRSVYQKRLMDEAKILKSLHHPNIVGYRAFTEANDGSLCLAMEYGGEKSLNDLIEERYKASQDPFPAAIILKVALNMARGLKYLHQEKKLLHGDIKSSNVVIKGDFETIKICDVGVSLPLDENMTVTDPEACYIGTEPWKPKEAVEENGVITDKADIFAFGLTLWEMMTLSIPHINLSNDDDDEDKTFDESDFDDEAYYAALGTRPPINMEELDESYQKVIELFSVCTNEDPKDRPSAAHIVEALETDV

The target in experiment [4] is T2, Myotonin-protein kinase (Homo sapiens) (UniProt Q09013).
T2 sequence (whole entry): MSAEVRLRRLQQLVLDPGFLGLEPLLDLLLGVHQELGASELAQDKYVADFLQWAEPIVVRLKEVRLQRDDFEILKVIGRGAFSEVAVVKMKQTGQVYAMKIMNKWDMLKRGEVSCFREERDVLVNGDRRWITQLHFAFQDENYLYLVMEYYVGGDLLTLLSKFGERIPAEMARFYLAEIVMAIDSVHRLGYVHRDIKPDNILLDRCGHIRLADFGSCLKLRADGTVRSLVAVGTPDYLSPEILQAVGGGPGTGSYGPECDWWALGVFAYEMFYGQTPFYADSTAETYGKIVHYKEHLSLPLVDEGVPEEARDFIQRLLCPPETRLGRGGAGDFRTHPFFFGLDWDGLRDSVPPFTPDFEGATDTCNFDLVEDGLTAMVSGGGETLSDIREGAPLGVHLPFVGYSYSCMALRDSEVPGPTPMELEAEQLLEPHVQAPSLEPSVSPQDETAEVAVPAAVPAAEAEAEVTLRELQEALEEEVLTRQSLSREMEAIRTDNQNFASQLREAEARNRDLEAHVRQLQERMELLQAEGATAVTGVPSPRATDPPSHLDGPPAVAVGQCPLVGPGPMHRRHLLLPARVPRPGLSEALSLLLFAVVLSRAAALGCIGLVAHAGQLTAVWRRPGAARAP

For experiment [5], the target named is 5'-AMP-activated protein kinase catalytic subunit alpha-2 (Homo sapiens) (UniProt P54646).
The target in experiment [6] is Serine/threonine-protein kinase PLK1 (Homo sapiens) (UniProt P53350).
In experiment [7] the target is Ribosomal protein S6 kinase alpha-3 (Homo sapiens) (UniProt P51812).
The target of experiment [8] is Cyclin-dependent kinase 16 (Homo sapiens) (UniProt Q00536).
Sequence of Cyclin-dependent kinase 16 (Homo sapiens) (Q00536 whole entry): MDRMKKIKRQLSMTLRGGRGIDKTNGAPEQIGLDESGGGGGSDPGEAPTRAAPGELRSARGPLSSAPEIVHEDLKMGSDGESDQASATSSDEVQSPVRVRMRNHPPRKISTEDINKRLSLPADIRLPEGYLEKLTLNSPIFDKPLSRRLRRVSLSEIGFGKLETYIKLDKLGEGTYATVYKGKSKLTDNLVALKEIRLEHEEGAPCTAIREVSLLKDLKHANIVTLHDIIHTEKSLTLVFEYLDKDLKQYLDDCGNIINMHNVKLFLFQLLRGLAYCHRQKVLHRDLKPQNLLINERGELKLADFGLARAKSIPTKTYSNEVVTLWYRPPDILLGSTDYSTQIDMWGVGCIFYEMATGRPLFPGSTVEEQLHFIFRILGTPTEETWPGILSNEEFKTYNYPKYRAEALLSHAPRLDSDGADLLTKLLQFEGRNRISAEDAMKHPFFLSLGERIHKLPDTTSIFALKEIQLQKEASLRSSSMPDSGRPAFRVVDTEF

Sequence of Serine/threonine-protein kinase PAK 5 (Homo sapiens) (Q9P286 whole entry, looked up): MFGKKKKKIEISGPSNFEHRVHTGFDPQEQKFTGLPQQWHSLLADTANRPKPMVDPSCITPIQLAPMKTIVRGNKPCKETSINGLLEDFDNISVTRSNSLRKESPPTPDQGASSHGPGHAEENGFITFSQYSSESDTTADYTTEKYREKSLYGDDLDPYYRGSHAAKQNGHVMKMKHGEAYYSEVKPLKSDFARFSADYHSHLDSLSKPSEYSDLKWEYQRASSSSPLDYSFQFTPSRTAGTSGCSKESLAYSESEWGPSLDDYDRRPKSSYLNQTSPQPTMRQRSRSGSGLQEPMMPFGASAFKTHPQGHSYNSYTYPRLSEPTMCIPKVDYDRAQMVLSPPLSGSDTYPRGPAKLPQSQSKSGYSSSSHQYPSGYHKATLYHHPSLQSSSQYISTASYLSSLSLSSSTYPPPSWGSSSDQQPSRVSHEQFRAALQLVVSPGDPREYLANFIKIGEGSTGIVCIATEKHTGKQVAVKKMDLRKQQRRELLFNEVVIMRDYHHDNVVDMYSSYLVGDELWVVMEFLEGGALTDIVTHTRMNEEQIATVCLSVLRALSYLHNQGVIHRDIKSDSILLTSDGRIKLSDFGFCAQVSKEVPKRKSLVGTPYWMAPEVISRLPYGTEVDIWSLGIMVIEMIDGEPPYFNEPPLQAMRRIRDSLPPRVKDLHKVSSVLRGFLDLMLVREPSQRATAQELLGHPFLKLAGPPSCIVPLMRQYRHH
Sequence of Ribosomal protein S6 kinase alpha-3 (Homo sapiens) (P51812 whole entry): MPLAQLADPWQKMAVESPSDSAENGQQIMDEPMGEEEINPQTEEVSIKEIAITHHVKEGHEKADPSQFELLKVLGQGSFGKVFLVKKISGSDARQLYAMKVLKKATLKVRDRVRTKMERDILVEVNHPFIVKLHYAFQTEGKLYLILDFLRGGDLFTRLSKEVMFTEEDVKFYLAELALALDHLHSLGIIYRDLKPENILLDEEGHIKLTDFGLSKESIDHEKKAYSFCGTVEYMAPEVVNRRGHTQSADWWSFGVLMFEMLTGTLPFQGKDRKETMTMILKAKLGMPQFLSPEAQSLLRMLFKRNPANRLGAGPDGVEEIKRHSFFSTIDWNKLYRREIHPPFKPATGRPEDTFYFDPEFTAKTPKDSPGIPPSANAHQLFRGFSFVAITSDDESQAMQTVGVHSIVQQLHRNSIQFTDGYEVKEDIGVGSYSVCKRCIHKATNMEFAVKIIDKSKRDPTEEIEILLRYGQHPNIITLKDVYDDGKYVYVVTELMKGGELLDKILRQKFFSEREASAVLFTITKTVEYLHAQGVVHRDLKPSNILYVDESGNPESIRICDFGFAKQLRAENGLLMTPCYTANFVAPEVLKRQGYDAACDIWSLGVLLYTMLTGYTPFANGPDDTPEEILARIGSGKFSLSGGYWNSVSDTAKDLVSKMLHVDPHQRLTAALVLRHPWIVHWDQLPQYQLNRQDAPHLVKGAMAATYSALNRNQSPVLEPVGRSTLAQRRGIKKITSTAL
Sequence of Serine/threonine-protein kinase PLK1 (Homo sapiens) (P53350 whole entry): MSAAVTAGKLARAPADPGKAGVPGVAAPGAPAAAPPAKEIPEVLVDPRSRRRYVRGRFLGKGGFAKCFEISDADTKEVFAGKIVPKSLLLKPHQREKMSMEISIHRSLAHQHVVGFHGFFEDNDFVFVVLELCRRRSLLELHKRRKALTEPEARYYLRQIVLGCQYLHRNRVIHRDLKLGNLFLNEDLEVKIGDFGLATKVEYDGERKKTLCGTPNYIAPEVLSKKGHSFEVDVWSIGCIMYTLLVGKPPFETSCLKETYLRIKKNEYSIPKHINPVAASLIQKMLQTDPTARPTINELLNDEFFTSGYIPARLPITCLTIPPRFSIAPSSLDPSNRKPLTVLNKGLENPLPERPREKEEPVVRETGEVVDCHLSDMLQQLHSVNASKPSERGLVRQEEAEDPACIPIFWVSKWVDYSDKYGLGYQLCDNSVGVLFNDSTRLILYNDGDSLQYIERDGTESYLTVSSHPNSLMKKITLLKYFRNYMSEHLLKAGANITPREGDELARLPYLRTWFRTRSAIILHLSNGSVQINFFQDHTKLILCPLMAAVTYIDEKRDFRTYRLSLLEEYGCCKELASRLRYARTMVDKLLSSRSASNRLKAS
Sequence of 5'-AMP-activated protein kinase catalytic subunit alpha-2 (Homo sapiens) (P54646 whole entry, looked up): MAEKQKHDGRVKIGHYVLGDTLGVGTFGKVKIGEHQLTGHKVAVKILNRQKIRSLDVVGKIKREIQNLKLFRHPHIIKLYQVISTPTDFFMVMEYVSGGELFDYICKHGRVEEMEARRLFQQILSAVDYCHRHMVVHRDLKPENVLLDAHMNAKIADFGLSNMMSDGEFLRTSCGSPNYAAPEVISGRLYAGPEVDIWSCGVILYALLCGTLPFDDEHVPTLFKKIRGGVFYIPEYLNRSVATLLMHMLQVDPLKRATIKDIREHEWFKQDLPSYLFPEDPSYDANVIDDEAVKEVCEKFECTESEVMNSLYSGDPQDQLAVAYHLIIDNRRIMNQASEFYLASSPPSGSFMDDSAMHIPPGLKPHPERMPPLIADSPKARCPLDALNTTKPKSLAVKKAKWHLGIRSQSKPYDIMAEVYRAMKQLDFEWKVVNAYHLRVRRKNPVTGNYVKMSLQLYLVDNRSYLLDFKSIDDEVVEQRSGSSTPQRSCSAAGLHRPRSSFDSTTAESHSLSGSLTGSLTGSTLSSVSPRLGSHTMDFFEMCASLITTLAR
Sequence of Calcium/calmodulin-dependent protein kinase type 1G (Homo sapiens) (Q96NX5 whole entry): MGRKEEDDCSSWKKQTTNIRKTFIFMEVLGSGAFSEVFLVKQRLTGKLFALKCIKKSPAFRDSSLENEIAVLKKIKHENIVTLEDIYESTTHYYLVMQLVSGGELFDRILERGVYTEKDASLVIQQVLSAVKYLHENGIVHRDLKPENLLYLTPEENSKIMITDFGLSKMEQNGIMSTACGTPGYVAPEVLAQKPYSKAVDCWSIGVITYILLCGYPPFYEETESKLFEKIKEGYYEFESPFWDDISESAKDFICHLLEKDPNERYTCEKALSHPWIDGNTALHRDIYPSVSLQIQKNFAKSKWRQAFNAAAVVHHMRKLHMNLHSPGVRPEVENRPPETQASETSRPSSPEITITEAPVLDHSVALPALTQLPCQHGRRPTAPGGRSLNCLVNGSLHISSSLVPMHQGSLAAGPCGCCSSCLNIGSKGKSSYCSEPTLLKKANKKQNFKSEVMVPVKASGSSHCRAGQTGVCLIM

By ΔTm is commonly meant the change in melting temperature against a reference sample. As for `C/C(O)=C(\C#N)C(=O)Nc1cc(Br)ccc1Br`, the ΔTm was 0.4 °C in experiment [1]; -0.1 °C in experiment [2]; 0.8 °C in experiment [3]; 0 °C in experiment [4]; 0.6 °C in experiment [5]; 1.3 °C in experiment [6]. Also, the shift in melting temperature (ΔTm) in experiment [7] was 0.6 °C; in experiment [8], -1.1 °C.
Turning to `COc1cc(/C=C/C(=O)CC(=O)/C=C/c2ccc(O)c(OC)c2)ccc1O` [CURCUMIN], the ΔTm was 1.3 °C in experiment [1]; 1.3 °C in experiment [2]; 0.7 °C in experiment [3]; 1.5 °C in experiment [4]; -0.1 °C in experiment [5]; 2 °C in experiment [6]. Moreover, the thermal shift (ΔTm) in experiment [7] turned out to be 3.4 °C; in experiment [8], 0.7 °C.
On to `CCCCc1c(-c2ccc(O)cc2)[nH]c2nccnc12` [ALOISINE A], for which the ΔTm in experiment [1] amounted to 2.2 °C; in experiment [2] it was 0.6 °C; in experiment [3], 0.7 °C; in experiment [4], 6.1 °C; in experiment [5], 2.2 °C; in experiment [6], 2.8 °C. Further, the ΔTm in experiment [7] was 3 °C; in experiment [8] it was -0.5 °C.
As to `COc1cc(OC)c(/C=C2\C(=O)Nc3ccccc32)c(OC)c1`, the ΔTm was -0.3 °C in experiment [1]; 0 °C in experiment [2]; 0.5 °C in experiment [3]; 0.2 °C in experiment [4]; -0.1 °C in experiment [5]; -0.7 °C in experiment [6]. In addition, the ΔTm in experiment [7] is -0.2 °C; in experiment [8] it was -0.7 °C.
Consider `C[S+]([O-])c1ccc(-c2nc(-c3ccc(F)cc3)c(-c3ccncc3)[nH]2)cc1` (stereo not drawn) [SB-203580], for which the ΔTm in experiment [1] was -0.1 °C; in experiment [2] it was -0.2 °C; in experiment [3] it was 0.2 °C; in experiment [4], 0.1 °C; in experiment [5], -0.9 °C; in experiment [6], 0.2 °C. The shift in melting temperature (ΔTm) in experiment [7] is 0.3 °C; in experiment [8], -0.8 °C.
For the compound `COc1cc(O)c2c(c1)oc(=O)c1c3cc(O)c(O)cc3oc21` [WEDELOLACTONE], the ΔTm is -0.3 °C in experiment [1]; 0.1 °C in experiment [2]; 0 °C in experiment [3]; 2.7 °C in experiment [4]; -0.8 °C in experiment [5]; 1.4 °C in experiment [6]. In addition, the ΔTm in experiment [7] stood at 1.8 °C; in experiment [8], 0.1 °C.
In the case of `O=C1Nc2ccccc2/C1=C/c1cnc[nH]1`, the ΔTm in experiment [1] is 0.7 °C; in experiment [2], 1.2 °C; in experiment [3], 0.1 °C; in experiment [4], 0.8 °C; in experiment [5], 3.3 °C; in experiment [6] it was 1.3 °C. Besides, the results for the ΔTm in experiment [7] and in experiment [8] were 5.8 °C and 4.7 °C, respectively.
Take `COc1cc(C[C@H]2C(=O)OC[C@@H]2Cc2ccc(OC)c(OC)c2)ccc1O` [ARCTIGENIN]: the ΔTm was 0.1 °C in experiment [1]; -0.3 °C in experiment [2]; -0.7 °C in experiment [3]; 1.4 °C in experiment [4]; -0.9 °C in experiment [5]; 0.1 °C in experiment [6]. Further, the ΔTm in experiment [7] was -0.2 °C; in experiment [8] it was -0.1 °C.
For `O=c1cc(N2CCOCC2)oc2c1ccc1ccccc12`, the thermal shift (ΔTm) in experiment [1] was determined as 0 °C; in experiment [2], 0.1 °C; in experiment [3], 0.7 °C; in experiment [4] it was 0.2 °C; in experiment [5], 0.4 °C; in experiment [6] it was 2.3 °C. Also, the results for the ΔTm in experiment [7] and in experiment [8] were 0.3 °C and -0.4 °C, respectively.
Turning to `CC(C)n1cnc2/c(=N/c3cccc(Cl)c3)nc(NCCO)[nH]c21`, the thermal shift (ΔTm) is 1.6 °C in experiment [1]; 0.1 °C in experiment [2]; -0.1 °C in experiment [3]; 0.1 °C in experiment [4]; 0.3 °C in experiment [5]; 7.5 °C in experiment [6]. For the same compound, the ΔTm was determined as 4.6 °C in experiment [7] and 0.1 °C in experiment [8].
`C[C@@H]1C[C@H]2O[C@@H]2/C=C\C=C\C(=O)Cc2c(Cl)c(O)cc(O)c2C(=O)O1` [RADICICOL]: the ΔTm in experiment [1] was 0.6 °C; in experiment [2] it was 0.6 °C; in experiment [3], 0.2 °C; in experiment [4] it was -0.9 °C; in experiment [5], -0.3 °C; in experiment [6], 0.2 °C. The ΔTm in experiment [7] and in experiment [8] was 0.2 °C throughout.
For `CN(C)c1ncnc2nc[nH]c12` [DIMETHYLADENINE], the ΔTm in experiment [1] was 0 °C; in experiment [2], -0.1 °C; in experiment [3], 0.5 °C; in experiment [4], 0.8 °C; in experiment [5], -0.6 °C; in experiment [6] it was 0.5 °C. In addition, the shift in melting temperature (ΔTm) is 0.6 °C in experiment [7] and -0.3 °C in experiment [8].
Consider `CCOc1ccc(/C=C2/SC(=O)N(CCN)C2=O)cc1` [HIAZOLIDINEDIONE1], for which the ΔTm in experiment [1] stood at 0.1 °C; in experiment [2], 0.2 °C; in experiment [3], 0.2 °C; in experiment [4], 1.4 °C; in experiment [5], 0.1 °C; in experiment [6], 0.6 °C. Further, the ΔTm worked out at 0 °C in experiment [7] and 0.2 °C in experiment [8].
For `Cc1cc(Nc2nc(-c3ccccc3)nc3ccccc23)n[nH]1`, the ΔTm in experiment [1] is 5.2 °C; in experiment [2], 3.7 °C; in experiment [3], 0.9 °C; in experiment [4], 1.9 °C; in experiment [5], 5.8 °C; in experiment [6], 10.8 °C. The values for the ΔTm in experiment [7] and in experiment [8] were 0.8 °C and 1.4 °C, respectively.
For the compound `O=C(Nc1cccc(Nc2nccc(Nc3cccc(C(F)(F)F)c3)n2)c1)C1CC1` [ANILINOPYRIMIDINE1], the ΔTm in experiment [1] worked out at 2.6 °C; in experiment [2], 3.8 °C; in experiment [4], 9.3 °C; in experiment [5] it was 1.5 °C; in experiment [6], 3.3 °C; in experiment [7] it was 4.8 °C. In addition, the ΔTm in experiment [8] is 3.2 °C.
Take `O=C1Nc2ccccc2/C1=C\c1ccc[nH]1`: the ΔTm in experiment [1] is 0.7 °C; in experiment [2], 1.9 °C; in experiment [3], -0.5 °C; in experiment [4], -0.6 °C; in experiment [5] it was 3.2 °C; in experiment [6], -0.6 °C. For the same compound, the ΔTm in experiment [8] was 1.7 °C.
For `COc1ccc(Cl)cc1NC(=O)Nc1cc(C)nc2ccccc12`, the ΔTm is 2.6 °C in experiment [1]; 4.4 °C in experiment [2]; 0.1 °C in experiment [4]; -0.4 °C in experiment [5]; 0.9 °C in experiment [6]; 2.2 °C in experiment [7]. Further, in experiment [8], the ΔTm came out at 0.5 °C.
As for `O=C(Nc1cccc(Nc2cc(Nc3cccc(C(F)(F)F)c3)ncn2)c1)C1CC1`, the ΔTm was 1 °C in experiment [1]; 3.7 °C in experiment [2]; 4 °C in experiment [4]; -3.7 °C in experiment [5]; 0 °C in experiment [6]; 5.6 °C in experiment [7]. In experiment [8], the ΔTm worked out at 3.9 °C.
As for `CN(c1cccnc1)c1cc2c(Nc3ccc(F)c(Cl)c3)c(C#N)cnc2cn1`, the ΔTm stood at 1 °C in experiment [1]; 2.4 °C in experiment [2]; 5.3 °C in experiment [4]; 4.8 °C in experiment [5]; 0.7 °C in experiment [6]; 8.5 °C in experiment [7]. In experiment [8], the ΔTm was found to be 0.1 °C.
On to `COc1nccc(-c2c(-c3ccc(F)cc3)ncn2[C@H]2CC[C@H](O)CC2)n1`, for which the ΔTm in experiment [1] is 0.1 °C; in experiment [2], 0.2 °C; in experiment [3] it was 0.7 °C; in experiment [5], 0.7 °C; in experiment [6] it was -0.2 °C; in experiment [7] it was 0.6 °C. Besides, the ΔTm in experiment [8] came to 0.6 °C.
As for `CN(C)C[C@@H]1CCn2cc(c3ccccc32)C2=C(C(=O)NC2=O)c2cn(c3ccccc23)CCO1` [RUBOXISTAURIN], the ΔTm in experiment [1] was 0.9 °C; in experiment [2], 0.1 °C; in experiment [3], 0.9 °C; in experiment [4], 5.3 °C; in experiment [5] it was 1.3 °C; in experiment [6], -0.9 °C. Besides, in experiment [7], the ΔTm is 8.1 °C.
As for `Cc1ccc(NC2=CC(=O)c3sc(C)nc3C2=O)cc1`, the ΔTm in experiment [1] was 0.4 °C; in experiment [2], -1.4 °C; in experiment [4], -2.4 °C; in experiment [5] it was 0 °C; in experiment [6], -0.2 °C; in experiment [7] it was -0.5 °C. Further, the ΔTm in experiment [8] is -0.9 °C.
